Measurements published in patent publication US9873889B2, “Increasing leaf longevity and disease resistance by altering salicylic acid catabolism” (priority 2013, dated 2018).

What was measured:
recombinant S3H = molecular target: T1, recombinant S3H (Arabidopsis thaliana, UniProt Q9ZSA8); assay: Enzyme assay of recombinant S3H (substrate specificity and kinetics); format: biochemical; conditions: for S3H enzyme activity on substrate (in words): 30-min reaction under the same conditions as those for SA
T1 construct: His (N); made in house; host or cells: E. coli BL21 (DE3, pLys3)
T1 sequence (Q9ZSA8 1-349): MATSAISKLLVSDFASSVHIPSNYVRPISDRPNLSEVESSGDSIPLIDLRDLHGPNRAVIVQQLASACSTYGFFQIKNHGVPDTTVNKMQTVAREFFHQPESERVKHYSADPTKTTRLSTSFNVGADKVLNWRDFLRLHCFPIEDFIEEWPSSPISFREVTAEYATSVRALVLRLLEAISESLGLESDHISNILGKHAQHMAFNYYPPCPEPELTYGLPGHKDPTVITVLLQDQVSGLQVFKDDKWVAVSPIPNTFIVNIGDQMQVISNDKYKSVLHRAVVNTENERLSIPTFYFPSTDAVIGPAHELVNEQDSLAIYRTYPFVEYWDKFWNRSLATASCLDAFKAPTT
Experimental: (§1) The construct pET28a-S3H was introduced into E. coli BL21 (DE3, pLys3, Invitrogen, Carlsbad, Calif.). The bacterial cells containing pET28a-S3H were induced with 0.5 mM isopropyl β-D-1-thiogalactoside (IPTG) for 24 hr at 18° C., and were collected and disrupted by sonication in lysis buffer (20 mM Tris-Cl, pH7.5, 2 mM EDTA, 2 mM β-mercaptoethanol, 1 mM PMSF, 10 mM Imidazole, 0.1% Triton X-100, 20 mM sodium ascorbate). All subsequent purification procedures involving His-Bind® resin were performed at 4° C. according to the manufacturer (Novagen, Madison, Wis.). The recombinant protein concentration was quantified using Quick Start Bradford Dye Reagent (Biorad, Hercules, Calif.). 2 mM DTT was added to the enzyme solution and the protein was immediately kept in a −80° C. refrigerator.
(§2) The enzyme assay was performed using a method modified from Satio et al. (Saito et al., “Direct Evidence for Anthocyanidin Synthase as a 2-Oxoglutarate-Dependent Oxygenase: Molecular Cloning and Functional Expression of cDNA From a Red Forma of Perilla frutescens,” Plant J. 17(2):181-189 (1999), which is hereby incorporated by reference in its entirety). The reaction mixture (100 μl) contained 5 mM DTT, 4 mM sodium ascorbate, 1 mM 2-oxoglutaric acid, 0.4 mM FeSO4, 0.1 mg/ml catalase, 50 mM Tris-Cl pH8.0 or other buffer, 8-15 μg recombinant protein, various concentrations of SA. To determine the optimal temperature and pH for enzyme activity of S3H, the protein was incubated with 200 μM SA substrate in Tris-Cl buffer (pH8.0) at different temperatures for 15 min; or 500 μM SA substrate, in 50 mM Sodium citrate, Tris-Cl and Glycine buffers with different pH at 40° C. for 15 min. For enzyme kinetics analysis, various substrate SA concentrations ranging from 10 to 500 μM were used and the incubation proceeded for 6 min with pH 6.0. […] Mass spectra were recorded over 15 to 800 m/z in the negative mode. Km and Vmax were determined by Graphpad Prism 5 software using non-linear regression for Michaelis-Menten equation.

S3H [1] = conditions: 10 μM, Col-0 (Seedling), 3 hrs; cited from earlier work
S3H [2] = assay: SA treatment of plants, RNA gel blot analysis of S3H expression; format: in vivo, Arabidopsis thaliana; conditions: 5 mM SA spray, Col-0 plants 25 DAG, 6 hours
Experimental: All chemicals used in this research were purchased from Sigma-Aldrich (St. Louis, Mo.), unless otherwise stated. Col-0 plants (25 DAG) were sprayed with 5 mM SA in 0.005% Silwet L-77 (Lehele Seeds, Tex.) or only 0.005% Silwet L-77 (mock). All rosette leaves of individual plants for RNA extraction were collected at different time points after the spray.
Total RNA extraction and RNA blot analysis were performed as described previously (He & Gan, “A Gene Encoding an Acyl Hydrolase Is Involved in Leaf Senescence in Arabidopsis,” Plant Cell 14(4):805-815 (2002), which is hereby incorporated by reference in its entirety). The DNA templates for probe labeling were amplified by the following different pairs of primers: S3H, G2956 and G2957; AtNAP, G3149 and G3150; SAG12, G10 and G246; SAG13, G9 and G16; EDS1, EDS1F and EDS1R; PAD4, PAD4F and PAD4R; PR1, PR1F and PR1R (FIG. 1E). The ethidium bromide staining of the RNA gels was used to show approximate amount of total RNA loading on each lane.

[3] = substrate: O=C(O)c1ccccc1O; assay: Enzyme assay of recombinant S3H (substrate specificity and kinetics); format: biochemical, Arabidopsis thaliana; conditions: other: pH 6.0 and 40° C. for 6 min, mean ± SE of four replicates
Experimental: as §1, §2

Nc1ccccc1C(=O)O [Anthranilic acid]
S3H enzyme activity on substrate (in words) (recombinant S3H): did not have detectable activity

O=C(O)c1ccccc1O [Salicylic acid]
Specific activity (recombinant S3H; pH 6.0 and 40° C. for 30 min, mean ± SE of three replicates, n.d. = not detectable): 78.06 ± 9.75 nmol/mg/min
Induction folds of S3H (S3H [1]): 36.72
S3H expression after SA treatment (RNA gel blot) (S3H [2]): readily inducible

O=C(O)c1ccccc1 [Benzoic acid]
S3H enzyme activity on substrate (in words) (recombinant S3H): did not have detectable activity

B1: recombinant S3H (Arabidopsis thaliana) (protein)
chain: MATSAISKLLVSDFASSVHIPSNYVRPISDRPNLSEVESSGDSIPLIDLRDLHGPNRAVIVQQLASACSTYGFFQIKNHGVPDTTVNKMQTVAREFFHQPESERVKHYSADPTKTTRLSTSFNVGADKVLNWRDFLRLHCFPIEDFIEEWPSSPISFREVTAEYATSVRALVLRLLEAISESLGLESDHISNILGKHAQHMAFNYYPPCPEPELTYGLPGHKDPTVITVLLQDQVSGLQVFKDDKWVAVSPIPNTFIVNIGDQMQVISNDKYKSVLHRAVVNTENERLSIPTFYFPSTDAVIGPAHELVNEQDSLAIYRTYPFVEYWDKFWNRSLATASCLDAFKAPTT
notes: His (N); made in house; host or cells: E. coli BL21 (DE3, pLys3)
Km [3]: 58.29 µM
Vmax [3]: 0.498 µmol/min/mg
kcat/Km [3]: 6090 M⁻¹ s⁻¹
